Measured values taken from publication PMC5874719, “A π-Halogen Bond of Dibenzofuranones with the Gatekeeper Phe113 in Human Protein Kinase CK2 Leads to Potent Tight Binding Inhibitors” (Pharmaceuticals, 2018).

Experiments:
Type in all cases: cell-based, human
[1] = system: cellular CK2 in ARPE19 cells; test: cellular CK2 activity after treatment of cells (in vitro phosphorylation assay of cell extracts); settings: for cellular CK2 activity reduced to: control = 100%
Procedure: (§1) Figure 4 Expression of CK2 in prostate cancer cell line LNCaP and non-neoplastic retinal pigment epithelial cell line ARPE19 and inhibition of intracellular activity by dibenzofurans. (A) Cells were extracted with RIPA buffer. 50 μg cell extract was separated on a 12.5% SDS polyacrylamide gel and transferred to a PVDF membrane followed by Western blotting with anti-CK2α (1A5), anti-CK2α’ (#30), anti-CK2α (6D5) and anti-GAPDH antibodies. GAPDH was used as a loading control. (B) ARPE19 or LNCaP cells were treated with DMSO as control (0 μM) or with 25 or 50 μM 4b, 4a or 5 for 24 or 48 h. Kinase activity of CK2 in the cell extracts was measured with the synthetic CK2 specific peptide substrate, […], in the presence of [[^32P]γATP. Results from at least three individual experiments are shown; the activity in the control cells was set to 100%.
(§2) ARPE19 and LNCaP cells were treated with 0, 25 or 50 µM of the different dibenzofuran derivatives 4b, 4a and 5 for 24 and 48 h before being harvested. Proteins were extracted and CK2 kinase activity was measured by an in vitro phosphorylation assay using the CK2 specific peptide substrate […] and radiolabeled [[^32P]γATP. The activity as measured was normalized to equal protein amounts. The relative CK2 activity of at least three independent experiments is given as bar graphs in Figure 4B. In ARPE19 cells CK2 activity was strongly repressed by all inhibitors. […] For 5 a weaker but dose-dependant effect was observed. 25 µM reduced the cellular CK2 activity to 80% and with 50 µM the activity was reduced to 40%. In LNCaP cells the results were essentially similar to those made in ARPE19 cells. However, the repression of activity by 4b and 4a was not as strong as in ARPE19 cells. 4b reduced the activity to 50%, 4a to 40%. The outcome using 5 was quite similar to the effects observed in ARPE19 cells: a reduction to roughly 80% when using 25 µM, which was enhanced to 40% when using 50 µM. This also indicated cell penetration of compounds 4a, 4b, and 5. A more direct evidence for intracellular inhibition of CK2 could be obtained by measuring the phosphorylation of endogenous natural substrates (biomarker analysis). […] With respect to their results and taking into consideration that the logP values of compounds 4a, 4b, and 5 as given in Table 2 are not of substantial difference, we conclude that the inhibitors were able to cross the cell membrane and exerted a similar inhibitory effect on intracellular CK2 activity in both cell lines.
(§3) ARPE19 cells (ATCC Number: CRL-2302), retinal pigment epithelia (RPE) cells, were maintained at 37 °C and 5% CO2 in Dulbecco’s modified Eagles medium (DMEM) supplemented with 2 mM L-glutamine, 1 mM gentamicin and 10% fetal calf serum (FCS) at 37 °C in an atmosphere enriched with 5% CO2. The hormone-sensitive prostate cancer cell line LNCaP (ATCC: CRL-1740, passage number 30–40) was cultured in RPMI1640 (Sigma-Aldrich Chemie GmbH, Munich, Germany) supplemented with 10% fetal bovine serum and 2 mM L-glutamine at 37 °C in an atmosphere enriched with 5% CO2. 4b, 4a and 5 were dissolved in DMSO as a 10 mM stock solution and cells were treated in the concentrations and times as indicated. Pure DMSO was applied as control. For the evaluation of cell morphology ARPE19 and LNCaP cells were analysed with bright field microscopy using a Axiovert microscope from Zeiss (Jena, Germany).
(§4) For harvesting cells—including floating cells—were scraped off the plate with a rubber policeman and sedimented by centrifugation (7 min, 4 °C, 400× g). Cells were washed with cold phosphate buffered saline (PBS) and the cell pellet was lysed with the double volume of RIPA buffer (50 mM Tris/HCl, pH 8.0, 150 mM NaCl, 0.5% sodium desoxycholate, 1% Triton X-100, 0.1% sodium dodecylsulfate) supplemented with the protease inhibitor cocktail completeTM (Roche Diagnostics GmbH, Mannheim, Germany). […]

[2] = system: cellular CK2 in LNCaP cells; test: as above; settings: control = 100%
Procedure: as §1, §2, §3, §4

PARP1 in LNCaP cells = test: PARP1 cleavage, Western blot
Procedure: Figure 6 Induction of apoptosis in prostate cancer cell line LNCaP and non-neoplastic retinal pigment epithelial cell line ARPE19. (A) ARPE19 or LNCaP cells were treated with DMSO as control (0 μM) or with 25 or 50 μM 4b, 4a or 5 for 24 or 48 h. Activity of caspases 3 and 7 was determined using the luminescent Caspase-Glo® 3/7 assay according to the technical bulletin of the manufacturer. Median relative light units (RLU) + standard deviation from at least three independent experiments are shown in the bar graph. (B) Cells were treated as described before. 75 μg cell extract was separated in a 10% SDS polyacrylamide gel and analyzed in a Western blot analysis with a rabbit polyclonal antibody against PARP1. + is a positive control for PARP cleavage.
In addition to the luminescence assay, Western blot analysis was performed to check PARP1-cleavage (Figure 6B). Therefore specific antibodies for the detection of the full-length PARP1 (113 kDa) and the larger cleavage fragment of PARP1 (89 kDa) were used. In ARPE19 cells no cleavage product of PARP1 was detectable.
Proteins were separated by SDS polyacrylamide gel electrophoresis and blotted onto a PVDF membrane. After blocking (1 h with PBS-Tween20 with 5% dry milk) the membrane was incubated with appropriate dilutions of primary antibodies in PBS-Tween20 with 1% dry milk for another hour at room temperature or at 4 °C overnight. Then the membrane was washed twice for 10 min with PBS-Tween20 with 1% dry milk. Incubation with the peroxidase-coupled secondary antibody (anti-rabbit 1:30,000, anti-mouse 1:10,000) followed for 1 h. The membrane was washed again twice for 10 min with PBS-Tween20. Signals were developed and visualized by the Lumilight system of Roche Diagnostics GmbH. For the detection of the apoptose marker protein PARP we used a polyclonal PARP antibody (Cell Signaling Technology, Frankfurt, Germany), a GAPDH specific antibody (Santa Cruz Biotechnologies, Dallas, TX, USA) was used for loading control. […]

[3] = 25 or 50 µM, 24 or 48 h (not specified)

COc1ccc(N/C=C2\C(=O)CCc3c2oc2cc(Cl)c(O)c(Cl)c32)cc1 [4a, 7,9-dichloro-1,2-dihydro-8-hydroxy-4-[(4-methoxyphenylamino)methylene]dibenzo[b,d]furan-3(2H)-one]
inhibition of cellular CK2 activity ([1]; ARPE19, 25 µM for 24 h): 80% | cellular CK2 activity reduced to [2, 3]: 40% | PARP1 cleavage (PARP1 in LNCaP cells; 25 or 50 µM, 24 or 48 h): did not result in cleavage of PARP1

COc1ccc(/N=C/c2c(O)ccc3c2oc2cc(Cl)c(O)c(Cl)c23)cc1 [compound 5, (E)-1,3-dichloro-6-[(4-methoxyphenylimino)methyl]dibenzo[b,d]furan-2,7-diol]
cellular CK2 activity reduced to ([1]; ARPE19, 25 µM): 80% | cellular CK2 activity reduced to ([1]; ARPE19, 50 µM): 40% | cellular CK2 activity reduced to ([2]; 25 µM): roughly 80% | cellular CK2 activity reduced to ([2]; 50 µM): 40% | PARP1 cleavage (PARP1 in LNCaP cells; 50 µM): cleavage of PARP1

Cc1ccc(NC=C2C(=O)CCc3c2oc2c(Cl)c(Cl)c(O)cc32)cc1 [4b, 6,7-dichloro-1,4-dihydro-8-hydroxy-4-[(4-methylphenylamino)methylene]dibenzo[b,d]furan-3(2H)-one]
inhibition of cellular CK2 activity ([1]; ARPE19, 25 or 50 µM, 24 or 48 h, independent of concentration and time): 60% | cellular CK2 activity reduced to [2, 3]: 50% | PARP1 cleavage (PARP1 in LNCaP cells; 50 µM): cleavage of PARP1
